Like-named read-outs stand apart in the source and are kept apart here.
How the values were obtained:
[1] = test system: dialysate serotonin in the nucleus accumbens; test: In vivo microdialysis, dialysate serotonin; details: awake freely moving rat; for ED150: p.o. or i.p. (italic); for [serotonin] ED75 (footnote 1): footnote 1: ED75 instead of ED150
Experimental: (§1) Microdialysis allows an insight into changes in neurotransmitters and their metabolites in the brain extracellular space in discrete brain regions in awake freely moving animals. […] The in vivo effects of the (mixtures of) compounds of the invention on dopamine, serotonin and noradrenalin levels were determined by microdialysis according to the protocol given below:
(§2) Dopamine and Serotonin Measurements by In Vivo Microdialysis
(§3) Surgery. […] Antibacterial agents and analgesics were administered prior to (Baytril (150 μl/rat i.m.)) and after (Temgesic (0.005-0.01 mg/kg i.m. non-diluted/rat)) surgery. […] In other animals, the skull is exposed and a 1 mm bore-hole is drilled through the bone above the prefrontal cortex (co-ordinates from bregma (mm): anterior-posterior +3.2, mediolateral 0.6 and dorsoventral −1.5 at a 0° angle (from dura)) in those animals where determination of dialysate noradrenaline levels is required. Smaller bore holes are made and three screws are inserted within the skull. The intracerebral guide cannula (CMA, Carnegie) is lowered through the hole until the tip is immediately above the nucleus accumbens or prefrontal cortex. The guide together with the screws are cemented onto the bone with dental cement and the surrounding skin sutured. Animals are allowed to recover at least six days prior to microdialysis experimentation.
(§4) Microdialysis experimentation. On the day of the experiment microdialysis probes (CMA 12, 0.5 mm outer diameter, Stockholm, Sweden) are inserted through the guide cannula into the nucleus accumbens (2 mm membrane length) or prefrontal cortex (4 mm membrane length). The Inlet of the probe is connected with low volume tubing (F.E.B-tubing, 1.2 μl/10 cm, Carnegie) via a liquid-swivel (dual channel; Instech, UK) on a counterbalanced arm, to a syringe-pump (Harvard, 10 channel). […] The outlet of the probe is connected with low volume tubing via the liquid swivel to a CMA 140 fraction collector. The tubing is supported by a stainless steel wire which leads from the swivel down to a clip, which fits to a collar around the neck of an animal. […] Samples are collected at a flow rate of 2 μl/min at 20 min intervals (40 μl volume) in vials containing 50 μl of a HCOOH/cysteine solution (0.02M/0.2 w/v %) to prevent oxidation of the compounds. Following a baseline period of 5 samples, drugs are administered systemically and at least a further 8 samples collected. All samples were stored post-collection on dry ice and frozen at […] prior to analysis by high-performance liquid chromatography (HPLC) coupled to electrochemical detection described below.
(§5) Analysis of dialysate dopamine and serotonin. […] The final pH was adjusted to 4.9 with 1N NaOH. Dopamine and serotonin are electrochemically detected with an EG&G (model 400, Princeton Applied Research) controller equipped with a glassy carbon working electrode (VT-03; Antec, Leiden, the Netherlands). The potential is set at 600 mV versus an Ag/AgCl reference electrode. The output is recorded on a computer equipped with Hyperchem™ (Hewlett-Packard Inc.) which measures peak height values. Calculations (μg/20 min) are made using peak height values of analysed standard solutions containing known amounts of dopamine and serotonin. Analysis of dialysate dopamine and noradrenaline. […] The basal mobile phase consists of: 50 mM NaAc, and 0.27 mM EDTA. The final concentration of 1-octanesulfonic acid (NOS) and methanol, as well as the final pH (adjusted with HAc), vary with the different brain areas under examination. The compounds are electrochemically detected with an EG&G (model 400, Princeton Applied Research) controller equipped with a glassy carbon working electrode (VT-03; Antec, Leiden, the Netherlands). The potential is set at 450 mV versus a Hyref reference electrode.

[2] = test system: noradrenaline levels in the prefrontal cortex; test: In vivo microdialysis, dialysate noradrenaline; details: awake freely moving rat, p.o. or i.p. (italic)
Experimental: as §1, §2, §3
Microdialysis experimentation. On the day of the experiment microdialysis probes (CMA 12, 0.5 mm outer diameter, Stockholm, Sweden) are inserted through the guide cannula into the nucleus accumbens (2 mm membrane length) or prefrontal cortex (4 mm membrane length). The Inlet of the probe is connected with low volume tubing (F.E.B-tubing, 1.2 μl/10 cm, Carnegie) via a liquid-swivel (dual channel; Instech, UK) on a counterbalanced arm, to a syringe-pump (Harvard, 10 channel). […] The outlet of the probe is connected with low volume tubing via the liquid swivel to a CMA 140 fraction collector. […]
Analysis of dialysate dopamine and serotonin. […] Dopamine and serotonin are electrochemically detected with an EG&G (model 400, Princeton Applied Research) controller equipped with a glassy carbon working electrode (VT-03; Antec, Leiden, the Netherlands). […] The output is recorded on a computer equipped with Hyperchem™ (Hewlett-Packard Inc.) which measures peak height values. Calculations (μg/20 min) are made using peak height values of analysed standard solutions containing known amounts of dopamine and serotonin. […] The compounds are electrochemically detected with an EG&G (model 400, Princeton Applied Research) controller equipped with a glassy carbon working electrode (VT-03; Antec, Leiden, the Netherlands). […]

[3] = test system: dialysate dopamine in the nucleus accumbens; test: In vivo microdialysis, dialysate dopamine; parameters: species or system rat; details: read-out: [dopamine] ED75
Experimental: as §1, §2, §3, §4, §5

[4] = target: human dopamine D2,L receptors (Homo sapiens, UniProt P14416); test: Inhibition of forskolin-induced [3H]-cAMP accumulation in CHO-K1 cells
[5] = target: noradrenaline reuptake sites (Rattus norvegicus, UniProt Q9WTR4); test: In vitro functional inhibition of [3H]-noradrenalin reuptake in rat hypothalamus synaptosomes; assay type: biochemical
Experimental: (§6) The in vitro functional activity at dopamine-D2 receptors, Including the intrinsic activity (ε) of the compounds which can be used according to the invention as well as relevant reference compounds was measured by their ability to inhibit forskolin-induced [^3H]cAMP accumulation. Serotonin and noradrenaline reuptake inhibitory activity was measured In rat brain synaptosomes.
Synaptosomes were pre-incubated in absence or presence of the test compound for 10 min at 37° C., in a medium containing the monoamine oxidase inhibitor pargyline (7 μM). Subsequently, the synaptosomes were exposed to [^3H]-noradrenaline ([…] final concentration) for 15 min.
[^3H]-noradrenaline uptake was stopped by filtration with a harvester and the non-incorporated radioactivity was removed by an extensive washing programme. The filter plates with synaptosomes were dehydrated and the amount of [^3H]-noradrenaline present was determined by Betaplate liquid scintillation counting.

serotonin reuptake sites = target: T1, serotonin reuptake sites (Rattus norvegicus, UniProt P31652); test: In vitro functional inhibition of [3H]-serotonin reuptake in rat brain synaptosomes; assay type: biochemical
T1 construct: the cerebral hemispheres were rapidly removed and a P2-synaptosomal fraction was prepared; from tissue; host or cells: rat (Wistar) cerebral hemispheres, P2-synaptosomal fraction
Experimental: as §6
In Vitro Functional Inhibition of [^3H]-serotonin Reuptake
Synaptosomes were pre-incubated in absence or presence of the test compound for 15 min at 37° C., in a medium containing the monoamine oxidase inhibitor pargyline (7 μM). Subsequently, the synaptosomes were exposed to [^3H]-serotonin ([…] final concentration) for 10 min.
[^3H]-serotonine uptake was stopped by filtration with a harvester and the non-incorporated radioactivity was removed by an extensive washing programme. The filter plates with synaptosomes were dehydrated and the amount of [^3H]-serotonin present was determined by Betaplate liquid scintillation counting.

[6] = nucleus accumbens, awake freely moving rat, p.o. or i.p. (italic)
[7] = rat brain synaptosomes, read-out: 5-HT uptake pIC50 (converted)
[8] = fraction of full agonism (ε = 1, quinpirole)

T1 sequence (P31652 whole entry): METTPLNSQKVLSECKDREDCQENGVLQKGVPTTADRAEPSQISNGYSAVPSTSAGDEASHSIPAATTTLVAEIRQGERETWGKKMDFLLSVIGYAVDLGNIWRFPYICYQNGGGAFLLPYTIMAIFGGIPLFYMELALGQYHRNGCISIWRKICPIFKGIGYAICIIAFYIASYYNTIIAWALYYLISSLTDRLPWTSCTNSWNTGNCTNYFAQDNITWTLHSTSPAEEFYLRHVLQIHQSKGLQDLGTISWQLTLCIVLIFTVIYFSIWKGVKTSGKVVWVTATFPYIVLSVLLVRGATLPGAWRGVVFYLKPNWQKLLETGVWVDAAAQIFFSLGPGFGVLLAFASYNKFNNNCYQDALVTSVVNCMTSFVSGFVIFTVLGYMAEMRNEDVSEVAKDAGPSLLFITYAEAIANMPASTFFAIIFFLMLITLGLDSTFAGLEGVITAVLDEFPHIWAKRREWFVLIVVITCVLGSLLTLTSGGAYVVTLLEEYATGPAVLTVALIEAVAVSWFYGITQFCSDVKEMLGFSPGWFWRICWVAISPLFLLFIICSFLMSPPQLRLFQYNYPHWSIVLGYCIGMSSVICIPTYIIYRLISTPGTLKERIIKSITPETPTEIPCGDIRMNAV
human dopamine D2,L receptors, sequence (P14416 whole entry): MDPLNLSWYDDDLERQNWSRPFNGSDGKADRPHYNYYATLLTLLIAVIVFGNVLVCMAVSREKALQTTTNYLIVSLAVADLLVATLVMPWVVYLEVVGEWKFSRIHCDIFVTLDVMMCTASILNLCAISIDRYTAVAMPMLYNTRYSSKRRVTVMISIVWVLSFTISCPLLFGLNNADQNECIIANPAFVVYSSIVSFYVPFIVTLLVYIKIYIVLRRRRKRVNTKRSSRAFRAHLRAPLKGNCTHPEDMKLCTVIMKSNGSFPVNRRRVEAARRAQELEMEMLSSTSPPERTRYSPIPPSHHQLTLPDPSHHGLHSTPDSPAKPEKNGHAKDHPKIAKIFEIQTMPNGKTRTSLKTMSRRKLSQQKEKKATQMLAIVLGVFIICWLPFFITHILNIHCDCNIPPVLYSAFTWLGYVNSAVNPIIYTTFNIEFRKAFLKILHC

Structure (SMILES)	ED150 [1] [mg/kg]	ED75 [3, 6] [mg/kg]	EC50 [4] [µM]	cAMP accum. ε (intrinsic activity) [4]	NA uptake pIC50 ([5]; rat hypothalamus synaptosomes)	IC50 (serotonin reuptake sites; [7]) [µM]	cAMP accum. ε (intrinsic activity) [4, 8]	other results
CNCCCN1c2ccccc2CCc2ccccc21 [DMI]	> 3	> 3	> 1	0.12				[noradren] ED150 [2]: 1.64 mg/kg
CN1CCN(c2cccc3[nH]c(=O)oc23)CC1 [SLV 308]		0.04	0.0316		<5.0	> 10		[serotonin] ED75 (footnote 1) [1]: 0.45^1 mg/kg; [noradren] ED150 [2]: 0.53 mg/kg; EC50 ([4]; pEC50 (inhibition of cAMP formation)): 0.01 µM
O=c1[nH]c2cccc(N3CCN(Cc4cccc(-c5ccccc5)c4)CC3)c2o1 [bifeprunox]			0.0158	0.20	4.6	15.8		[serotonin] ED75 (footnote 1) [1]: >10^1 mg/kg; ED75 ([3]; Rattus norvegicus): > 10 mg/kg
Cn1cc(CCCN2CCN(c3cccc4[nH]c(=O)oc34)CC2)c2cc(F)ccc21 [example 1a]	2.52	8.14	> 1		<5.0	0.126	0.27	
O=c1[nH]c2cccc(N3CCN(CCCc4cn5c6c(cc(F)cc46)CCC5)CC3)c2o1 [example 1b]					5.2	> 10	0.27	
O=c1[nH]c2cccc(N3CCN(CCCc4c[nH]c5ccc(F)cc45)CC3)c2o1 [example 1c]	14.8	3.92	0.158		<5.0	0.0251	0.53	
Cc1cccc2c(CCCN3CCN(c4cccc5[nH]c(=O)oc45)CC3)c[nH]c12 [example 1d]			< 0.001		<5.0	0.398	0.56	
O=c1[nH]c2cccc(N3CCN(CCCc4c[nH]c5ccccc45)CC3)c2o1 [example 1e]			< 0.001		<5.0	0.251	0.60	
COCCCC/C(=N\OCCN)c1ccc(C(F)(F)F)cc1 [fluvoxamine]			> 1		5.3		0.10	
CCN(CC)C(=O)C1(c2ccccc2)CC1CN (stereo not drawn) [milnacipran]	5.5	> 30	> 1	0.21				[noradren] ED150 [2]: 2.41 mg/kg; NA uptake pIC50 [5]: 5.5; IC50 (serotonin reuptake sites): 0.251 µM
Fc1ccc([C@@H]2CCNC[C@H]2COc2ccc3c(c2)OCO3)cc1 [paroxetine]	< 10	> 10	> 1	0.36				NA uptake pIC50 [5]: <5.0
CCCN1CCC[C@@H](c2cccc(O)c2)C1 [preclamol]	> 30	14.5			5.3	> 10	0.36	
CCCN1CCC[C@@H]2Cc3n[nH]cc3C[C@H]21 [quinpirole]	> 3	0.04						
CCOc1ccccc1OC(c1ccccc1)C1CNCCO1 (stereo not drawn) [reboxetine]	> 3	> 3						[noradren] ED150 [2]: <3.0 mg/kg
C=CCN1CCc2nc(N)sc2CC1 [talipexole]	> 10	< 0.1	0.0398	1.00				agonist properties at human dopamine D2 receptors (FIG. 2 upper panel) [4]: full agonists; NA uptake pIC50 [5]: <5.0; IC50 (serotonin reuptake sites): > 10 µM
CCN(CC)C(=O)N[C@H]1C[C@@H]2c3cccc4[nH]cc(c34)C[C@H]2N(C)C1 [terguride]	> 10	> 10	0.000398		<5.0	> 10	0.38	agonist properties at human dopamine D2 receptors (FIG. 2 upper panel) ([4]; agonist mode): partial agonists; antagonist effects against the reference agonist quinpirole (FIG. 2 lower panel) ([4]; antagonist mode versus quinpirole): partial antagonists

Reference: patent publication US20050038015A1, “Partial dopamine-D 2 receptor agonist plus serotonin and/oder noradrenaline inhibitor activity” (priority 2002, published 2005)
